Measurements: US20250282742A1, “BENZOFURAN DERIVATIVES FOR TARGETING AUTOPHAGY” (Automera PTE. LTD, priority 2024, published 2025)

How the values were obtained:
Recombinant p62 protein = biological target: T1, Recombinant p62 protein (Homo sapiens, UniProt Q13501); assay: Surface plasmon resonance (SPR) compound binding to immobilised p62; details: recombinant p62, 15° C
T1 construct: Recombinant p62 protein was buffer exchanged into Biacore SPR running buffer
Procedure: Example 28: Surface Plasmon Resonance (SPR) Analysis
Recombinant p62 protein was buffer exchanged into Biacore SPR running buffer (Cytiva 100671) using the Slide-A-Lyzer Mini Dialysis system 7K MWCO (Thermo Fisher Scientific, Cat no. 69560). The final protein concentration was determined using the Nanodrop One spectrophotometer (Thermo Fisher Scientific, cat no. ND-ONE-W), with calibration for the dialysis buffer.
The prepared protein was diluted in sodium acetate buffer (NaAc, pH 5.5, Cytiva) to concentrations ranging from approximately 0.25-40 μg/mL. Post-immobilization, the protein required approximately 16 hours of equilibration in running buffer supplemented with 1% DMSO at 15° C. to ensure adequate surface equilibration and protein reorganization.
All SPR experiments were conducted at a constant temperature of 15° C. The SPR chip surface was activated using EDC/NHS for a contact time of 6-10 min at a flow rate of 10 μL/min. This was followed by protein immobilization for 2100 seconds and ethanolamine capping for 420 seconds, both at the same flow rate. Immediately after immobilization, the NH2—REEE peptide was analyzed in Single Cycle Kinetics mode (SCK) to verify surface activity, ensuring it binds the sample with the published affinity (−20 μM by SPR).
For general compound binding studies, experiments were performed at 15° C. using a running buffer composed of 10 mM HEPES, 150 mM NaCl, 1 mM DTT, 0.05% Tween 20, and 1% DMSO at pH 7.4. The test compound was initially prepared at a 20 mM concentration in DMSO and subsequently titrated in 2-fold dilutions. For each assay, 2 μL of the compound was mixed with 198 μL of the running buffer, and the mixture was thoroughly pipetted approximately 15 times for homogenization.
A series of blank injections (0 μM concentration) were included for double referencing, with at least 8 or 16 per plate depending on the format. Typical injection parameters were 120 seconds for association and 180 seconds for dissociation at a flow rate of […]. A four-point solvent correction was prepared with DMSO concentrations ranging from 2% to 0.5% in the buffer. Post each compound injection, the system's needles were washed with 50% DMSO.
Analysis of the SPR data was conducted using the Cytiva Evaluation software. The binding levels at the late time-point of each interaction were corrected for reference, then normalized to percentage bound values to account for variations in immobilization levels, protein molecular weight, and compound molecular weight.
Compound binding studies were carried out according to experimental procedures above and SPR % occupancy was determined and summarized in Table 7.

[1] = system: LC3 protein (LC3-II/LC3-I) in HeLa cells; assay: LC3 lipidation assay (LC3-II/LC3-I, Western blot, 24 h treatment); type: cell-based; details: fold change in LC3-II/LC3-I relative to DMSO control
Procedure: (§1) HeLa cells were seeded in 6-well plates (700,000 cells) and allowed to adhere overnight. Media was replaced one hour before administering either vehicle (DMSO) or test compounds. After 24 hours of treatment, the media was discarded, and cells were rinsed once with ice-cold 1×PBS before detached from plates with ice-cold RIPA Lysis and Extraction Buffer (Thermo Fisher Scientific) which was supplemented with protease and phosphatase inhibitors. The resulting cell suspensions were transferred to pre-chilled microcentrifuge tubes, incubated on ice for 20 min with intermittent mixing and then centrifuged at 12,000 rpm for 20 min at 4° C. The supernatants were then aspirated slowly and transferred into new tubes kept on ice. The protein concentration in the samples was determined using BCA kit (Thermo Fisher Scientific) as per manufacturer's instructions.
(§2) For the p62 oligomerization and LC3 lipidation assays, cell lysates were prepared using RIPA buffer supplemented with 2% SDS and benzonase (Sigma). The lysates were then combined with 4× Laemmli protein sample buffer (Bio-Rad), heated at 70° C. for 10 min and subjected to a brief centrifugation of 10-15 seconds.
(§3) For p62 oligomerization and LC3 lipidation assays, lysates containing 30 μg of protein and for BRD4 and FKBP12(F36V) degradation assays, lysates containing 20 μg of protein, were loaded slowly into the wells of 4-20% gradient Tris-glycine gels (Bio-Rad). The gels were run at 100V until completion and transferred onto PVDF membranes. Membranes were blocked using 5% milk in TBS-Tween (0.1%) buffer at room temperature for 1 hour. The membranes were incubated with primary antibody in 5% milk-TBST with shaking, overnight at 4° C. The primary antibodies used were: p62 (Novus Biologicals 2C11, H00008878-MO1), LC3A/B (Cell Signalling Technology D3U4C, 12741S), FKBP12 (Abcam ab24373), BRD4 (Cell Signalling Technology E2A7X, 13440S), GAPDH (Cell Signalling Technology D4C6R, 97166S), and β-Actin (Proteintech 66009-1-Ig). Following primary antibody incubation, membranes were washed thrice with TBST 10 min before and after incubation with secondary-HRP conjugated antibody in 5% milk-TBST for 1 hour at room temperature. The secondary antibodies used were: Anti-Mouse IgG HRP Conjugate (Promega W4021B) and Anti-Rabbit IgG HRP Conjugate (Promega W4011B). For the p62 oligomerization assay, the total protein levels were assessed using Ponceau staining (Thermo Fisher Scientific) of PVDF membrane as per recommendation by manufacturer's guidelines.
(§4) Imaging was acquired using SuperSignal™ West Pico PLUS Chemiluminescent Substrate (Thermo Fisher Scientific) with iBright Invitrogen FL100 imaging system. Band signal intensity, reflective of protein concentrations, were quantified using Invitrogen™ iBright™ Analysis and Image J software.
HeLa cells were treated with compounds for 24 hours to evaluate the effect of these compounds on LC3-II/LC3-I levels, a measure of autophagy activation. The changes in levels of LC3-I, LC3-II and β-Actin (loading control) were assessed by Western blotting, as described in experimental procedures. The fold increase of LC3-II/LC3-I levels induced by compound treatment relative to vehicle control (DMSO) was determined and summarized in Table 9. Specifically, FIGS. 3A-C show Western blot images and their corresponding quantification showing the lipidation levels of LC3 protein (LC3-II/LC3-I) by 24 hours compound treatments at listed concentrations, relative to vehicle control (DMSO) in HeLa cells.

[2] = system: p62 oligomers in HeLa cells; assay: p62 oligomerization assay (Western blot, 24 h treatment); type: cell-based; details: fold change of p62 oligomer levels relative to DMSO control
Procedure: as §1, §2, §3, §4
HeLa cells were treated with compounds for 24 hours to evaluate the effect of these compounds on p62 oligomerisation activity. The resulting changes in levels of p62 oligomers were assessed by Western blotting, as described in experimental procedures. The fold change of p62 oligomer levels induced by compound treatment relative to vehicle control (DMSO) was determined and summarized in Table 8. Specifically, FIGS. 2A-C show Western blot images and their corresponding quantification showing the levels of high molecular weight (100-200 kDa) p62 oligomers by 24 hours compound treatments at listed concentrations, relative to vehicle control (DMSO) in HeLa cells. Protein loading consistencies was assessed by Ponceau staining (not shown).

T1 sequence (Q13501 whole entry, species assumed): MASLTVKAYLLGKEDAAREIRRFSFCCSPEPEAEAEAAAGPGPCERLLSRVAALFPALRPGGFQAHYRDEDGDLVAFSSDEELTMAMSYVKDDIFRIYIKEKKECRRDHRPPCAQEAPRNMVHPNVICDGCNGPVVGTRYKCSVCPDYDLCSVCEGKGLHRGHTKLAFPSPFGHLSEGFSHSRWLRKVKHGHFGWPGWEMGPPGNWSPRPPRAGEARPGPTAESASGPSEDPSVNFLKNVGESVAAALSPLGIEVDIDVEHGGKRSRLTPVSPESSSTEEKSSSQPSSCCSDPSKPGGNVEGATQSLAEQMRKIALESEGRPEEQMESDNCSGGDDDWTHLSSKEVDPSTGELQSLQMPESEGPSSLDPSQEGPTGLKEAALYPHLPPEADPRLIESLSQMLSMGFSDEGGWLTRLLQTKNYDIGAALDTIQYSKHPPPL

receptor occupancy at 100 µM (Recombinant p62 protein) [%] | Compound | LC3 lipidation [1] | p62 oligomerization [2]
30 to 70 | OCCNCc1ccc2cc(-c3ccccc3)oc2c1 [Compound 2, 2-(((2-phenylbenzofuran-6-yl)methyl)amino)ethan-1-ol] | ++ (> 2-fold change in LC3-II/LC3-I relative to DMSO control) | ++ (> 2-fold change relative to DMSO control)
> 70 | OCCNCc1ccc2cc(Cc3ccc(Cl)cc3)oc2c1 [Compound 13, 2-(((2-(4-chlorobenzyl)benzofuran-6-yl)methyl)amino)ethan-1-ol] | ++ (> 2-fold change in LC3-II/LC3-I relative to DMSO control) | ++ (> 2-fold change relative to DMSO control)
30 to 70 | Cc1c(Cc2ccccc2)oc2cc(CNCCO)ccc12 [Compound 42, 2-(((2-benzyl-3-methylbenzofuran-6-yl)methyl)amino)ethan-1-ol] | + (< 2-fold change in LC3-II/LC3-I relative to DMSO control) | + (< 2-fold change relative to DMSO control)
30 to 70 | OCCNCc1ccc2cc(CCc3ccc(F)cc3)oc2c1 [Compound 49, 2-(((2-(4-fluorophenethyl)benzofuran-6-yl)methyl)amino)ethan-1-ol] | + (< 2-fold change in LC3-II/LC3-I relative to DMSO control) | ++ (> 2-fold change relative to DMSO control)
< 30 | OCCNCc1ccc2cc(Cc3ccccc3)oc2c1 [compound 1] | + (< 2-fold change in LC3-II/LC3-I relative to DMSO control) | + (< 2-fold change relative to DMSO control)
> 70 | OCCNCc1ccc2cc(Cc3ccc(F)cc3)oc2c1 [compound 12] | + (< 2-fold change in LC3-II/LC3-I relative to DMSO control) | ++ (> 2-fold change relative to DMSO control)
